From US12600696B2 (XENIOPRO GMBH, priority 2017, dated 2026)

Key:
[1] = system: HL-60 cells (human acute myeloid leukemia cells); assay: alamarBlue proliferation assay with HL-60 cells; assay type: cell-based; conditions: 120 h, 5 days, relative to DMSO baseline level of 1.0, read-out: AVEw, weighted arithmetic mean of normalized fluorescence intensity values (Activity Range), HL-60 proliferation
Description: The antiproliferative activities of compounds falling under formula I, formula II, formula III, formula IV and formula V were investigated on cells or cell lines originating from a disorder of the myeloid cell compartment, the neuroendocrine system, the cervix, and the mucosal epithelium, as well as from the skin epithelium. To this end, HL-60 cells, TT cells, HeLa cells, CAL-27 cells and human primary epidermal keratinocytes (HPEK) were seeded into 96-well plates suitable for fluorescence assays (CORNING #3598) at following initial cell numbers: 1000 cells per well for HL-60; 9000 cells per well for TT; 2000 cells per well for HeLa, 2000 cells per well for CAL-27, 2000 cells per well for HPEK. The cells were treated with compounds at indicated final concentrations (diluted from the 1000× stock-solutions in DMSO to a final DMSO concentration of 0.1% v/v) or with the empty carrier DMSO at 0.1% v/v as control for 5 days. At day 5 after starting the treatments the cells were subjected to the alamarBlue® Proliferation Assay (Bio-Rad Serotec GmbH, BUF012B) according to the protocol of the manufacturer. The readout was taken with a multi-well plate-reader in the fluorescence mode with applying a filter for excitation at 560 nm (band width 10 nm) and for emission at 590 nm (band width 10 nm). Resveratrol (RES) treatment was included as control for growth inhibition.
The assays were performed in duplicate or more replicates of independent single experiments each containing a six-fold replicate for every condition. For every individual plate, the measured fluorescence intensity values of the conditions with compound treatment were normalized against the corresponding equally weighted arithmetic mean of the fluorescence intensity values of the six DMSO treated control wells in order to obtain the relative values to a baseline level of 1.0. The statistical calculations were performed in analogy to the luciferase assay as described above. To this end, two independent outlier analyses were performed according to the methods by Peirce and Chauvenet (Ross, Journal of Engineering Technology 2003, 1-12). Outliers confirmed by at least one of the methods were excluded from the calculations but not more than one value out of six per compound within a single experiment. The weighted arithmetic mean AVEw for each compound was calculated from the normalized values over all independent replicates of the single experiments comprising the six replicates each. The corresponding standard deviation for the weighted arithmetic mean was calculated according to the method described by Bronstein et al. (Bronstein, Semendjajew, Musiol, Mühlig, Taschenbuch der Mathematik, 5th edition 2001 (German), publisher: Verlag Harri Deutsch, Frankfurt am Main and Thun) and was combined with the Gauß′ error propagation associated with the performed calculation for the normalization. The resulting standard deviation is herein referred to as “combined standard deviation”.
HL-60 cells were cultivated according to the protocol of the provider in RPMI 1640 medium (Fisherscientific, #11554526) containing 10% fetal bovine serum (Fisherscientific, #15517589).
A compound is considered as a growth inhibitor of HL-60 cells, if—at a reference concentration of 20 μM—the weighted arithmetic mean of the normalized fluorescence intensity values after addition of the corresponding combined standard deviation amounts to 0.9 or lower, in particular to 0.8 or lower, 0.7 or lower, 0.6 or lower, 0.4 or lower, and 0.2 or lower, relative to the overall basis level of 1.0. The overall basis level was calculated as the weighted arithmetic mean of all normalized values from the DMSO control measurements in analogy to the calculations performed for the test-compounds. The corresponding combined standard deviation for the DMSO values amounts to less than 1·10^−2.

[2] = system: Notch signaling (hNotch1ΔE, human Notch1 receptor) in HeLa cells; assay: Notch reporter assay (luciferase luminescence readout in transfected HeLa cells); assay type: cell-based; conditions: Homo sapiens, 20 hours, relative to DMSO baseline level of 1.0, read-out: AVEw, weighted arithmetic mean of double-normalized Notch-reporter luciferase luminescence values (Activity Range)
Description: An according Notch-reporter assay, i.e. a luciferase-based luminescence readout, was used here to quantify the ability of the claimed small molecules to augment Notch signaling in a cellular system. For this purpose, HeLa cells, obtainable from the American Type Culture Collection (ATCC) under the accession number ATCC-CCL-2, were transiently transfected for 24 hours using FuGENE® HD (Promega, #E2311) as transfection reagent with expression vectors of a membrane-tethered form of the constitutively active intracellular domain of the human Notch1 receptor (hNotch1ΔE) to activate the signaling cascade (BPS Bioscience, human analogue to Notch Pathway Reporter Kit #60509 component C), a Firefly luciferase being expressed under the control of a Notch-responsive promoter to monitor Notch signaling (BPS Bioscience, Notch Pathway Reporter Kit #60509, CSL luciferase reporter vector from component A not premixed with Renilla luciferase vector), and a Renilla luciferase being constitutively expressed in a Notch signaling independent manner to include a measure for the cell number per sample (Promega, pRL-SV40, #E2231). HeLa cells were cultivated according to the protocol of the provider in DMEM medium (Fisherscientific, #11584456) containing 10% fetal bovine serum (Fisherscientific, #15517589). The transfection was carried out in a 100 mm-culture dish (StarLab, #CC7682-3394) with cells being properly attached to the plate at a cell confluency of 80-90% in a total volume of 7 mL culture medium. Per dish to be transfected, a transfection mix was prepared by adding to 238 μL Opti-MEM (Fisherscientific, #10149832) 40 μL of the hNotch1ΔE expression vector (100 ng/μL), 80 μL of the CSL luciferase reporter vector (40 ng/μL), 4 μL of the pRL-SV40-Renilla luciferase vector (10 ng/μL), and in the last step 18.1 μL of FuGENE® HD. After addition of FuGENE® HD the transfection mix was let stand for 15 min at room temperature and hereafter equally distributed into the culture dish. Subsequently, i.e. after 24 hours of transfection, the transfected cells (10.000 cells per well) were incubated with the test-compounds at a final concentration of 10 μM (diluted from 10 mM stock-solutions in DMSO to a final DMSO concentration of 0.1% v/v) or with the empty carrier DMSO at 0.1% v/v as control for 20 hours in 96-well plates suitable for luminescence readouts (CORNING, #3610). Hereafter, the cells were lysed with 30 μL per well of Passive Lysis Buffer (Promega, #E194A, component of Dual-Luciferase® Reporter Assay System, #E1910) and the Firefly as well as Renilla luciferase values were measured with a luminescence reader with applying 15 μL per well each of the corresponding enzyme substrates needed to create the luminescence signals (Promega, Dual-Luciferase® Reporter Assay System, #E1910).
The suitability of the assays for monitoring Notch signaling was controlled by additionally including a generally accepted commercial Notch inhibitor, i.e. DAPT, as negative control, as well as the reported Notch enhancer resveratrol (RES) as positive control (Pinchot et al., Cancer 2011, 117, 1386-1398; Truong et al., Ann. Surg. Oncol. 2011, 18, 1506-1511; Yu et al., Mol. Cancer Ther. 2013, 12, 1276-1287). Both control compounds were likewise tested at 10 μM.
Per single experiment the measurement was performed in six replicates per compound. For every compound, this experiment was repeated in three or more independent replicates. The values of the Notch-reporter luciferase were normalized by division through the corresponding individual Notch-independent Renilla values in order to eliminate the impact of variation in the absolute cell-numbers in between the samples. For every individual plate, a second normalization was performed against the equally weighted arithmetic mean (here abbreviated as AVE) of the six associated Renilla-normalized DMSO-control values within a single experiment in order to obtain the relative values to a baseline level of 1.0. […]

Structure (SMILES) | activity at 20 µM [1] | fold induction at 10 µM [2]
COC(=O)c1ccc(Oc2ccc(C3CC4CCC3CC4)cc2)cc1 (racemic) [Compound 044, (±)-Methyl 4-(4-(bicyclo[2.2.2]octan-2-yl)phenoxy)benzoate] | 40 to 60% | 1.3 to 1.4
CCOC(=O)c1ccc(Oc2ccc(C3CC4CCC3C4)cc2)cc1 (racemic) [Compound 066, ethyl 4-(4-((1S,4R)-bicyclo[2.2.1]heptan-2yl)phenoxy)benzoate] | 40 to 60% | 1.3 to 1.4
CCOC(=O)c1ccc(Oc2ccc(C3CC4CCC3CC4)cc2)cc1 (racemic) [Compound 067, ethyl 4-(4-((1s,4s)-bicyclo[2.2.2]octan-2-yl)phenoxy)benzoate] | 60 to 70% | 1.4 to 1.7
CCOC(=O)c1ccc(Oc2ccc(C3CC4CCC3C4)cc2)nc1 (racemic) [Compound 133, ethyl 6-(4-((1S,4R)-bicyclo[2.2.1]heptan-2-yl)phenoxy)nicotinate] | 40 to 60% | 1.2 to 1.3
CCOC(=O)c1ccc(Oc2ccc(C3CC4CCC3CC4)cc2)nc1 (racemic) [Compound 134, ethyl 6-(4-((1s,4s)-bicyclo[2.2.2]octan-2-yl)phenoxy)nicotinate] | 70 to 80% | 1.4 to 1.7
CCC(C)(C)c1ccc(Oc2ccc(C(=O)OC)cc2)cc1 [Compound 030, Methyl 4-(4-(tert-Pentyl)phenoxy)benzoate] | 80 to 90% | ≥ 2
COC(=O)c1ccc(Oc2ccc(C3CCCCC3)cc2)cc1 [Compound 041, methyl 4-(4-(cyclohexyl)phenoxy)benzoate] | 70 to 80% | 1.4 to 1.7
COC(=O)c1ccc(Oc2ccc(C3C[C@@H]4CC[C@H]3C4)cc2)cc1 (stereo partly drawn) [Compound 043, methyl 4-(4-((1S,4R)-bicyclo[2.2.1]heptan-2-yl)phenoxy)benzoate] | 40 to 60% | 1.7 to 2
COC(=O)c1ccc(Oc2ccc(C34CC5CC(CC(C5)C3)C4)cc2)cc1 [Compound 045, methyl 4-(4-((3r,5r,7r)-adamantan-1-yl)phenoxy)benzoate] | 40 to 60% | 1.7 to 2
CCCCc1ccc(Oc2ccc(C(=O)O)cn2)cc1 [Compound 072, 6-(4-butylphenoxy)nicotinic acid] | 80 to 90% | 1.4 to 1.7
CCCCCc1ccc(Oc2ccc(C(=O)O)cn2)cc1 [Compound 073, 6-(4-pentylphenoxy)nicotinic acid] | 80 to 90% | 1.4 to 1.7
CC(C)c1ccc(Oc2ccc(C(=O)O)cn2)cc1 [Compound 075, 6-(4-isopropylphenoxy)nicotinic acid] | 80 to 90% | 1.4 to 1.7
CCc1ccc(Oc2ccc(C(=O)OC)cn2)cc1 [Compound 092, methyl 6-(4-ethylphenoxy)nicotinate] | 80 to 90% | 1.2 to 1.3
Cc1ccc(Oc2ccc(C(=O)N(C)C)cc2)cc1 [Compound 215, N,N-dimethyl-4-(p-tolyloxy)benzamide] | 70 to 80% | 1.1 to 1.2
CCc1ccc(Oc2ccc(C(=O)N(C)C)cc2)cc1 [Compound 216, 4-(4-ethylphenoxy)-N,N-dimethylbenzamide] | 0 to 20% | 1.4 to 1.7
CCCc1ccc(Oc2ccc(C(=O)N(C)C)cc2)cc1 [Compound 217, N,N-dimethyl-4-(4-propylphenoxy)benzamide] | 60 to 70% | 1.2 to 1.3
CC(C)c1ccc(Oc2ccc(C(=O)N(C)C)cc2)cc1 [Compound 221, 4-(4-isopropylphenoxy)-N,N-dimethylbenzamide] | 40 to 60% | 1.1 to 1.2
CN(C)C(=O)c1ccc(Oc2ccc(C(C)(C)C)cc2)cc1 [Compound 222, 4-(4-(tert-Butyl)phenoxy)-N,N-dimethylbenzamide] | 60 to 70% | 1.2 to 1.3
Cc1ccc(Oc2ccc(C(=O)N(C)C)cn2)cc1 [Compound 316, N,N-dimethyl-6-(p-tolyloxy)nicotinamide] | 80 to 90% | 1.2 to 1.3
CCc1ccc(Oc2ccc(C(=O)N(C)C)cn2)cc1 [Compound 317, 6-(4-ethylphenoxy)-N,N-dimethylnicotinamide] | 80 to 90% | 1.4 to 1.7
CCCc1ccc(Oc2ccc(C(=O)N(C)C)cn2)cc1 [Compound 318, N,N-dimethyl-6-(4-propylphenoxy)nicotinamide] | 40 to 60% | 1.7 to 2
CCCCc1ccc(Oc2ccc(C(=O)N(C)C)cn2)cc1 [Compound 319, 6-(4-butylphenoxy)-N,N-dimethylnicotinamide] | 40 to 60% | 1.3 to 1.4
CC(C)c1ccc(Oc2ccc(C(=O)N(C)C)cn2)cc1 [Compound 322, 6-(4-Isopropylphenoxy)-N,N-dimethylnicotinamide] | 70 to 80% | ≥ 2
